pIC50: −log10 of the molar value.
Legend:
[1] = Hepatomicrosome stability, human; conditions: for Remaining percentage after 30 minutes: Human, 2 μM
Method: (§1) 1a) With NADPH: 10 μL of 20 mg/mL of hepatomicrosome and 40 μL of 10 mM of NADPH were added to medium. The final concentrations of hepatomicrosome and NADPH were 0.5 mg/mL and 1 mM, respectively.
(§2) 1b) Without NADPH: 10 μL of 20 mg/mL hepatomicrosome and 40 μL of ultra-pure H2O were added to medium. The final concentration of hepatomicrosome was 0.5 mg/mL.
(§3) 3) 3) Aliquots of 50 μL from the reaction solutions at 0 minute and 30 minutes were taken. The reaction solutions were stopped by adding 4 volumes of cold acetonitrile and 4 internal standards (IS internal standard, 100 nM of Alprazolam, 200 nM of caffeine, 200 nM of Labetalol, and 2 μM of Ketoprofen) to stop the reaction solution. The samples were centrifuged at 3,220 g for 40 minutes. Aliquots of 100 μL of the supernatants were mixed with 100 μL of ultra-pure H2O. Then, the mixtures were used for LC-MS/MS analysis. All experiments were performed in duplicate. The test results were as follow.

[2] = Plasma stability, dog; assay type: in vitro ADME
Method: (§4) Frozen plasma was melted immediately in a water bath at 37° C. […] The supernatants were collected into new tubes, respectively. pH values of the plasma were checked and recorded. Note: a, no more 2 times melted plasma was used since the sample was received; b, the plasma in pH 7 to pH 8 was used.
(§5) 1 mM of working solution of the test compounds and the control compound, propantheline, were prepared in DMSO. 1 mM of working solution of the control compound in […] was prepared in acetonitrile. 4 μL of the working solutions were added to 796 μL of pre-incubated plasma respectively to achieve a final concentration of 5 μM. The final concentration of solvent was 0.5%.
(§6) […] The test was performed in duplicate. […] 50 μL of the labeled plasma was added to new tubes containing 300 μL of the quench solution of room temperature, i.e., the sample with a preparation time of 0. The samples were vortexed to mix for 5 minutes. […] 100 μL of the supernatant was transferred to new plates.

[3] = Hepatomicrosome stability, rat; conditions: for Remaining percentage after 30 minutes: Rat, 2 μM
Method: as §1, §2, §3

[4] = system: NCI-H460 cells; assay: CDX model, subcutaneously transplanted human lung cancer; assay type: in vivo, BALB/c nude mice; conditions: for Relative tumor inhibition rate TGI (%): 31st day after inoculation
Method: BALB/c nude mice were subcutaneously inoculated with human lung cancer cells, NCI-H460 cells, to establish a subcutaneously transplanted tumor model of human lung cancer. The experiment was divided into a 20 mg/kg of the test drug compound 01 group, a 40 mg/kg of the test drug compound 01 group, and a vehicle control group with 10% of ethanol+10% of polyoxyethylene (35) castor oil, Cremophor EL+80% of 5% of glucose injection (pH7.4), and 6 mice in each group. […] The 40 mg/kg of the test drug compound 01 group was administered by tail vein injection, once every three weeks, for a total of 2 administrations, and observed for a week after the second administration. The 20 mg/kg of the test drug compound 01 group was administered by intraperitoneal injection once a day for 5 consecutive days and observed for 24 days. The efficacy was evaluated based on the relative tumor inhibition rate TGI (%). The safety evaluation was performed based on changes in animal body weight and mortality. The administered doses of compound 01 were determined based on the MTD experiment.
The tumor volume of each group of mice was measured on different days respectively, and the average value was obtained.

[5] = system: H460; assay: Cytotoxicity on cell lines of different species: H460; assay type: cell-based; conditions: NCI-H460, 72 h; H460, Human; exposure time: 3 days
[6] = Hepatomicrosome stability, dog; conditions: for Remaining percentage after 30 minutes: Dog, 2 μM
Method: as §1, §2, §3

[7] = Plasma stability, rat; assay type: in vitro ADME
Method: as §4, §5, §6

[8] = Plasma stability, mouse; assay type: in vitro ADME
Method: as §4, §5, §6

[9] = system: H460 cell line; assay: Cytotoxicity comparison of TH-302 and compound 01 on H460 at different test times; assay type: cell-based, human; conditions: for pIC50: Homo sapiens, NCI-H460, 2 h, H460, exposure for 2 hours, air
Excerpt: The cytotoxicity test results of TH-302 and compound 01 on H460 cell line under different test times in the same laboratory, the same operator, and the same experimental conditions.

[10] = Plasma stability, human; assay type: in vitro ADME; conditions: 5 μM, 37° C., after 30 minutes
Method: as §4, §5
Aliquots of 50 μL of labelled plasma were transferred to new tubes and incubated in a water bath at 37° C. at approximately 60 rpm for 2 hours. The test was performed in duplicate. […] 50 μL of the labeled plasma was added to new tubes containing 300 μL of the quench solution of room temperature, i.e., the sample with a preparation time of 0. The samples were vortexed to mix for 5 minutes. […] 100 μL of the supernatant was transferred to new plates.

[11] = system: AA8; assay: Cytotoxicity on cell lines of different species: AA8; assay type: cell-based

With `O=[N+]([O-])c1ccc(C(OP(=O)(N2CC2)N2CC2)C(F)(F)F)c2ccccc12` (stereo not drawn) [Compound 01] the “Remaining percentage after 30 minutes” value ([1]; with NADPH) was 96.39%, the “Remaining percentage after 30 minutes” value ([1]; without NADPH) was 82.15% and the “Stability in hepatomicrosomes (conclusion)” value (from here on “Stability in hepatomicrosomes”) ([1]; human) was “relatively stable”. For the same molecule, the Remaining percentage ([2]; Dog plasma, 5 μM, 37° C., after 30 minutes) was 85.04%, the “Stability in plasma (conclusion)” value ([2]; dog) was “relatively stable” and the “Remaining percentage after 30 minutes” value ([3]; with NADPH) was 71.05%. The “Remaining percentage after 30 minutes” value ([3]; without NADPH) was 111.15%, the “Stability in hepatomicrosomes” value ([3]; rat) was “unstable” and the “Relative tumor inhibition rate TGI (%)” value ([4]; 20 mg/kg, QD×5×1 week, IP, Exp. group 8) was 76.22%. For the same molecule, the “Relative tumor inhibition rate TGI (%)” value ([4]; 40 mg/kg, Q3W×2, IV, Exp. group 7) was 66.87%, the Tumor volume ([4]; day 7, Exp. group 7, 40 mg/kg, Q3W×2, IV) was 143.84 mm^3 and the Tumor volume ([4]; day 7, Exp. group 8, 20 mg/kg, QD×5×1 week, IP) was 144.63 mm^3. For the same molecule, the Tumor volume ([4]; day 10, Exp. group 7, 40 mg/kg, Q3W×2, IV) was 184.06 mm^3, the Tumor volume ([4]; day 10, Exp. group 8, 20 mg/kg, QD×5×1 week, IP) was 173.09 mm^3 and the Tumor volume ([4]; day 14, Exp. group 7, 40 mg/kg, Q3W×2, IV) was 153.75 mm^3. It also gave a Tumor volume ([4]; day 14, Exp. group 8, 20 mg/kg, QD×5×1 week, IP) of 152.99 mm^3, a Tumor volume ([4]; day 17, Exp. group 7, 40 mg/kg, Q3W×2, IV) of 159.72 mm^3 and a Tumor volume ([4]; day 17, Exp. group 8, 20 mg/kg, QD×5×1 week, IP) of 130.06 mm^3. It also gave a Tumor volume ([4]; day 21, Exp. group 7, 40 mg/kg, Q3W×2, IV) of 218.13 mm^3, a Tumor volume ([4]; day 21, Exp. group 8, 20 mg/kg, QD×5×1 week, IP) of 129.66 mm^3 and a Tumor volume ([4]; day 24, Exp. group 7, 40 mg/kg, Q3W×2, IV) of 291.07 mm^3. For the same molecule, the Tumor volume ([4]; day 24, Exp. group 8, 20 mg/kg, QD×5×1 week, IP) was 164.63 mm^3, the Tumor volume ([4]; day 28, Exp. group 7, 40 mg/kg, Q3W×2, IV) was 520.17 mm^3 and the Tumor volume ([4]; day 28, Exp. group 8, 20 mg/kg, QD×5×1 week, IP) was 272.20 mm^3. It also gave a Tumor volume ([4]; day 31, Exp. group 7, 40 mg/kg, Q3W×2, IV) of 580.70 mm^3, a Tumor volume ([4]; day 31, Exp. group 8, 20 mg/kg, QD×5×1 week, IP) of 447.50 mm^3 and a Tumor volume ([4]; day 35, Exp. group 7, 40 mg/kg, Q3W×2, IV) of 447.32 mm^3. For the same molecule, the Tumor volume ([4]; day 35, Exp. group 8, 20 mg/kg, QD×5×1 week, IP) was 651.58 mm^3, the pIC50 [5] was 7.00 and the “Remaining percentage after 30 minutes” value ([6]; with NADPH) was 31.16%. The “Remaining percentage after 30 minutes” value ([6]; without NADPH) was 101.62%, the “Stability in hepatomicrosomes” value ([6]; dog) was “unstable” and the Remaining percentage ([7]; Rat plasma, 5 μM, 37° C., after 30 minutes) was 52.11%. The “Stability in plasma (conclusion)” value ([7]; rat) was “relatively unstable”, the Remaining percentage ([8]; Mouse plasma, 5 μM, 37° C., after 30 minutes) was 55.07% and the “Stability in plasma (conclusion)” value ([8]; mouse) was “relatively unstable”. For the same molecule, the pIC50 ([9]; Time 1) was 6.15, the pIC50 ([9]; Time 2) was 6.52 and the pIC50 ([9]; Time 3) was 6.30. The “Multiple TH-302/Compound 01” value ([9]; Time 1) was 32.9, the “Multiple TH-302/Compound 01” value ([9]; Time 2) was 26.7 and the “Multiple TH-302/Compound 01” value ([9]; Time 3) was 6.6. The Remaining percentage [10] was 68.68%, the pIC50 ([11]; CHO-AA8, 72 h, AA8, Rat, exposure time: 3 days) was 4.96 and the “Multiple: Rat/Human” value ([11]; IC50 AA8 / IC50 H460) was 110.
